The values below come from patent US9551722B2, “Amyloid binding agents” (The Regents of the University of California, priority 2009, dated 2017).

Each structure is given as a SMILES string. Several values for one entry are separate records, joined by “and”; a condition that tells them apart may be missing. Equal values may be shown once.

The target in experiment [1] is T1, aggregated Aβ(1-42) peptides (Homo sapiens, UniProt P05067).
T1 construct: preaggregated Aβ(1-42) peptides
The experiment in a line: Fluorescence spectra before and after mixing with preaggregated Aβ(1-42) (Cmpds 8a-8d, 11, 14, 19). The class given is binding. As to conditions: for Emission max before binding / Excitation max before binding: 4 μM compound in PBS, without Aβ; for Emission max before binding / Excitation max before binding / Emission max after binding / Excitation max after binding: 25° C.; for Fold increase (fluorescence intensity after binding) / Emission max after binding / Excitation max after binding: 4 μM compound, 5 μM aggregated Aβ(1-42); for Emission max after binding / Excitation max after binding: PBS. From the text:
An initial study to determine whether a compound can associate with aggregated Aβ is to compare its fluorescence spectra before and after mixing with the Aβ aggregates. See E. E. Nesterov, J. Skoch, B. T. Hyman, W. E. Klunk, B. J. Bacskai, T. M. Swager, Angew. Chem. Int. Edit. 2005, 44:5452-5456; Z. P. Zhuang, M. P. Kung, H. F. Kung, J. Med. Chem. 2006, 49:2841-2844; Q. A. Li, J. S. Lee, C. Ha, C. B. Park, G. Yang, W. B. Gan, Y. T. Chang, Angew. Chem. Int. Edit. 2004, 43:6331-6335; H. F. Kung, C. W. Lee, Z. P. Zhuang, M. P. Kung, C. Hou, K. Plossl, J. Am. Chem. Soc. 2001, 123:12740-12741. […] See H. LeVine III, Protein Sci. 1993, 2:404-410. Along these lines we measured the fluorescent properties of each compound at 4 μM concentration before and after mixing with preaggregated Aβ(1-42) peptides (5 μM, aggregated in PBS buffer for 3 days at 25° C.).
Aggregated Aβ peptide was prepared by dissolving Aβ(1-42) in PBS pH 7.4 to a final concentration of 100 μM. This solution was magnetically stirred at 1200 rpm for 3 days at room temperature. The 100 μM Aβ(1-42) stock solution in PBS was aliquoted and frozen at […] for up to 4 weeks without noticeable change in its property. 150 μL of pre-aggregated Aβ(1-42) was added to 2.85 mL of compound to attain a final concentration of 5 μM Aβ(1-42) and 4 μM of compound. The solution was transferred to 3 mL cuvette and the fluorescence measured at 25° C. […] The fluorescence excitation spectra of Cmpds 8a, 8b, 8c, 14 and 19 are depicted in FIG. 4, respectively.

In experiment [2] the target is T2, interaction of the aggregated Aβ peptide with a monoclonal anti-Aβ IgG (Homo sapiens, UniProt P05067).
T2 construct: Aggregated Aβ peptides were generated from synthetic Aβ(1-42) peptides
T2 sequence (P05067 672-713 limits assumed): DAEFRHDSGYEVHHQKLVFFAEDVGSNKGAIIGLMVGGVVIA
In words: Semi-quantitative ELISA: inhibition of IgG-Aβ fibril interactions. Type of experiment: binding. Particulars: anti-Aβ IgG clone 6E10; for IC50: 50% inhibition of IgG-Aβ interactions; for Maximum % inhibition (ELISA): maximal percentage of IgG inhibited from binding to the fibrils. As for the experimental part: The association of the synthesized compounds with aggregated Aβ peptides was tested using a semi-quantitative ELISA based assay developed by Yang and co-workers. See P. Inbar, J. Yang, Bioorg. Med. Chem. Lett. 2006, 16:1076-1079; P. Inbar, C. Q. Li, S. A. Takayama, M. R. Bautista, J. Yang, ChemBioChem 2006, 7:1563-1566; P. Inbar, M. R. Bautista, S. A. Takayama, J. Yang, Anal. Chem. 2008, 80:3502-3506. The assay is based on screening for molecules that inhibit the interaction of the aggregated Aβ peptide with a monoclonal anti-Aβ IgG raised against residues 1-17 of Aβ. Table 4 provides the concentrations of the compounds corresponding to 50% inhibition (IC50) of the IgG-Aβ interactions as well as the maximal percentage of the IgG's inhibited from binding to the fibrils. […] The maximum inhibition, a measure of the extent of surface coating of the aggregated peptide by the compounds, was determined to be between 40-98% (Table 4). See P. Inbar, J. Yang, Bioorg. Med. Chem. Lett. 2006, 16:1076-1079; P. Inbar, C. Q. Li, S. A. Takayama, M. R. Bautista, J. Yang, ChemBioChem 2006, 7:1563-1566; P. Inbar, M. R. Bautista, S. A. Takayama, J. Yang, Anal. Chem. 2008, 80:3502-3506. […] Specifically, while the maximum inhibition is between 81-98% for the phenyl compounds, it decreases to 58% for the longer naphthalene compound 11 and to 40% for the more conjugated stilbene 19.
Aggregated Aβ peptides were generated from synthetic Aβ(1-42) peptides by dissolving 30 μg of peptide in 90 μL of nanopure water (pH 5-6) and incubating at 37° C. for ≧72 h without agitation. Each well of a 96-well plate (well volume 0.4 mL; clear, flat bottom polypropylene) was coated for 3 h at 25° C. with 50 μL of 1.3 μM solution of Aβ peptides in phosphate-buffered saline (PBS, 10 mM NaH2PO4/Na2HPO4, 138 mM NaCl, 2.7 mM KCl, pH 7.4). After removal of the excess sample, 50 μL solutions of compounds in PBS buffer (various concentrations were obtained by diluting a stock solution with PBS buffer) were incubated in the wells for 12 h. […] The excess solutions were then removed and all wells were blocked for 30 min by adding 300 μL of a 1% (w/v) solution of bovine serum albumin in PBS buffer (BSA/PBS). On occasion, an additional blocking step was performed prior to incubation with solutions of small molecules. The blocking solution was discarded and the wells were washed once with 300 μL of PBS buffer. Wells were incubated for 1 h with 50 μL of a 1.1 nM solution (in 1% BSA/PBS, dilution 1:6000) of anti-Aβ IgG (clone 6E10, monoclonal, mouse), followed by removal of the solution. The wells were washed twice with 300 μL of PBS buffer and incubated for 60 min with 50 μL of the secondary IgG (anti-mouse IgG H+L, polyclonal, rabbit) conjugated with alkaline phosphatase (6.8 nM in 1% BSA/PBS, dilution 1:1000). The solution was discarded, and the wells were washed twice with 300 μL PBS buffer. Bound secondary IgGs were detected by the addition of 50 μL of a p-nitrophenyl phosphate solution (2.7 mM, in 100 mM diethanol amine/0.5 mM magnesium chloride, pH 9.8). Absorbance intensities were determined at 405 nm using a UV-vis spectroscopic plate reader (Sprectramax 190, Molecular Devices, Sunnyvale, Calif.). Each run was performed five times and averaged. Error bars represent standard deviations. Graphs were plotted and fitted with the sigmoid curve fitting.

T1 sequence (P05067 672-713 limits assumed): as above

With `CCN(CC)c1ccc(C=C(C#N)C(=O)OCCOCCOCCOC)cc1` (stereo in doubt) [Cmpd 8c, (Z)-2-(2-(2-methoxyethoxyl)ethoxy)ethyl 2-cyano-3-(4-(diethylamino)phenyl)acrylate], in experiment [1], the “Emission max before binding” value is 478 nm, the “Excitation max before binding” value is 445 nm, the “Fold increase (fluorescence intensity after binding)” value (shortened to “Fold increase”) is recorded as 4.2 fold and the “Emission max after binding” value is reported as 470 nm. In addition, the “Excitation max after binding” value in experiment [1] amounted to 442 nm. Besides, in experiment [2], the IC50 is 11.4 µM and the “Maximum % inhibition (ELISA)” value amounted to 98%.
With `CCCCN(CCCC)c1ccc(C=C(C#N)C(=O)OCCOCCOCCOC)cc1` (stereo in doubt) [Cmpd 8d, (Z)-2-(2-(2-methoxyethoxyl)ethoxy)ethyl-2-cyano-3-(4-(dibutylamino)phenyl)acrylate], in experiment [1], the “Emission max before binding” value is on record as 466 nm, the “Excitation max before binding” value was found to be 432 nm, the “Fold increase” value was determined as 9.4 fold and the “Emission max after binding” value came to 468 nm. Also, the “Excitation max after binding” value in experiment [1] came out at 440 nm. In experiment [2], the IC50 came out at 90.6 µM and the “Maximum % inhibition (ELISA)” value worked out at 91%.
In the case of `COCCOCCOCCOC(=O)/C(C#N)=C/c1ccc(N(C)C)cc1` [Cmpd 8a, (E)-2-(2-(2-methoxyethoxyl)ethoxy)ethyl 2-cyano-3-(4-(dimethylamino)phenyl)acrylate], in experiment [1], the “Emission max before binding” value worked out at 476 nm, the “Excitation max before binding” value worked out at 439 nm, the “Fold increase” value stood at 1.8 fold and the “Emission max after binding” value worked out at 470 nm. Besides, in experiment [1], the “Excitation max after binding” value amounted to 435 nm. Further, in experiment [2], the IC50 is 129 µM and the “Maximum % inhibition (ELISA)” value was found to be 81%.
Turning to `COCCOCCOCCOC(=O)/C(C#N)=C/c1ccc(N(C)C)cc1OC` [Cmpd 8b, (E)-2-(2-(2-methoxyethoxyl)ethoxy)ethyl 2-cyano-3-(4-(dimethylamino)-2-methoxyphenyl)acrylate], in experiment [1], the “Emission max before binding” value is listed as 478 nm, the “Excitation max before binding” value is 442 nm, the “Fold increase” value is 1.3 fold and the “Emission max after binding” value was found to be 469 nm. The “Excitation max after binding” value in experiment [1] is 444 nm. In experiment [2], the IC50 is 1.17 µM and 1.2 µM; the “Maximum % inhibition (ELISA)” value was found to be 92%.
Regarding `COCCOCCOCCOC(=O)/C(C#N)=C/c1ccc2cc(N3CCCCC3)ccc2c1` [Cmpd 11, (E)-2-(2-(2-methoxyethoxyl)ethoxy)ethyl-2-cyano-3-(6-(piperidin-1-yl)naphthalen-2-yl)acrylate], in experiment [1], the “Emission max before binding” value is recorded as 462 nm, the “Excitation max before binding” value worked out at 445 nm, the “Fold increase” value was 9.3 fold and the “Emission max after binding” value was determined as 538 nm. Besides, in experiment [1], the “Excitation max after binding” value is given as 440 nm. Also, the “Red shift of emission upon binding” value in experiment [1] (binding to preaggregated Aβ) is given as 76 nm. Also, in experiment [2], half-maximal inhibition (IC50) was put at 74.3 µM and the “Maximum % inhibition (ELISA)” value is reported as 58%.
Regarding `CN(C)c1ccc(/C=C(\C#N)C(=O)OCC(O)CO)cc1` (stereo not shown) [Cmpd 14, (E)-2,3-dihydroxypropyl 2-cyano-3-(4-(dimethylamino)phenyl) acrylate], in experiment [1], the “Emission max before binding” value turned out to be 476 nm, the “Excitation max before binding” value was found to be 437 nm, the “Fold increase” value was found to be 2.2 fold and the “Emission max after binding” value is 467 nm. The “Excitation max after binding” value in experiment [1] turned out to be 434 nm. Further, in experiment [2], the IC50 is 82.1 µM and the “Maximum % inhibition (ELISA)” value is given as 79%.
